This note sets out measurements from ChEMBL document CHEMBL4028869, “Synthesis and Bioevaluation of Macrocycle-Polyamine Conjugates as Cell Migration Inhibitors” (J Med Chem, 2017).

Some results are limits rather than exact numbers.

A short description of data set [1]: Substrate activity at PTS in CHO cells assessed as reduction in cell viability after 48 hrs in presence of aminoguanidine by MTS assay. In kind it is cell-based. The settings on record: Cricetulus griseus. A general note: Tetrazolium dyes change colour on reduction, which living cells bring about.
Another data set deals with CHO-MG. The experiment in a line: Cytotoxicity against CHO-MG cells assessed as reduction in cell viability after 48 hrs in presence of aminoguanidine by MTS assay. It is filed as cell-based. Particulars: Cricetulus griseus.
Data set [2] is described as follows: Antiproliferative activity against human L3.6p1 cells after 48 hrs in presence of amine oxidase inhibitor aminoguanidine by MTS assay. It is filed as functional, cell-based. The settings on record: for IC50: Homo sapiens, L3.6p1, 48 h.
Data set [3] can be described thus: Antimigratory activity against human L3.6p1 cells at 1 uM after 24 hrs in presence of amine oxidase inhibitor aminoguanidine by scratch assay relative to control. Particulars: L3.6p1, 24 h. It is filed as functional.
Data set [4] can be described thus: Solubility in water. Particulars: buffer. In kind it is physicochemical.
Data set [5] is described as follows: Selectivity ratio of IC50 for CHO-MG cells to IC50 for PTS in CHO cells. Further details: species or system Cricetulus griseus.
The nature of data set [6]: Antimigratory activity against human L3.6p1 cells at 0.5 uM after 24 hrs in presence of amine oxidase inhibitor aminoguanidine by scratch assay relative to control. In kind it is functional. Particulars: L3.6p1, 24 h.
Data set [7] is described as follows: Modulation of ceramide pool in human L3.6p1 cells assessed as N16:0 level per mg protein at 500 nM after 48 hrs (reference value: 0.08 +/- 0.01 nmol). In kind it is functional.
Data set [8] is described as follows: Modulation of ceramide pool in human L3.6p1 cells assessed as N24:1 level per mg protein at 500 nM after 48 hrs (reference value: 0.37 +/- 0.06 nmol). In kind it is functional.
The nature of data set [9]: Modulation of ceramide pool in human L3.6p1 cells assessed as N24:0 level per mg protein at 500 nM after 48 hrs (reference value: 0.16 +/- 0.04 nmol). It is filed as functional.
The nature of data set [10]: Modulation of ceramide pool in human L3.6p1 cells assessed as total ceramide level per mg protein at 500 nM after 48 hrs (reference value: 0.62 +/- 0.10 nmol). It is filed as functional.
Data set [11] is described as follows: Modulation of sphingomyelin pool in human L3.6p1 cells assessed as N14:0 level per mg protein at 500 nM after 48 hrs (reference value: 0.13 +/- 0.01 nmol). It is filed as functional.
Data set [12] can be described thus: Modulation of sphingomyelin pool in human L3.6p1 cells assessed as N15:0 level per mg protein at 500 nM after 48 hrs (reference value: 0.12 nmol). In kind it is functional.
Data set [13] can be described thus: Modulation of sphingomyelin pool in human L3.6p1 cells assessed as N16:1 level per mg protein at 500 nM after 48 hrs (reference value: 0.28 +/- 0.01 nmol). In kind it is functional.
The nature of data set [14]: Modulation of sphingomyelin pool in human L3.6p1 cells assessed as N16:0 level per mg protein at 500 nM after 48 hrs (reference value: 2.60 +/- 0.06 nmol). It is filed as functional.
A short description of data set [15]: Modulation of sphingomyelin pool in human L3.6p1 cells assessed as N17:0 level per mg protein at 500 nM after 48 hrs (reference value: 0.05 +/- 0.01 nmol). In kind it is functional.
The nature of data set [16]: Modulation of sphingomyelin pool in human L3.6p1 cells assessed as N18:1 level per mg protein at 500 nM after 48 hrs (reference value: 0.07 nmol). In kind it is functional.
A short description of data set [17]: Modulation of sphingomyelin pool in human L3.6p1 cells assessed as N18:0 level per mg protein at 500 nM after 48 hrs (reference value: 0.19 +/- 0.01 nmol). It is filed as functional.
Data set [18] in a line: Modulation of sphingomyelin pool in human L3.6p1 cells assessed as N19:0 level per mg protein at 500 nM after 48 hrs (reference value: 0.01 nmol). It is filed as functional.
Data set [19] is described as follows: Modulation of sphingomyelin pool in human L3.6p1 cells assessed as N20:1 level per mg protein at 500 nM after 48 hrs (reference value: 0.02 nmol). In kind it is functional.
Data set [20] is described as follows: Modulation of sphingomyelin pool in human L3.6p1 cells assessed as N20:0 level per mg protein at 500 nM after 48 hrs (reference value: 0.06 +/- 0.01 nmol). It is filed as functional.
Data set [21] in a line: Modulation of sphingomyelin pool in human L3.6p1 cells assessed as N21:0 level per mg protein at 500 nM after 48 hrs (reference value: 0.03 nmol). In kind it is functional.
A short description of data set [22]: Modulation of sphingomyelin pool in human L3.6p1 cells assessed as N22:2 level per mg protein at 500 nM after 48 hrs (reference value: 0.01 nmol). It is filed as functional.
The nature of data set [23]: Modulation of sphingomyelin pool in human L3.6p1 cells assessed as N22:1 level per mg protein at 500 nM after 48 hrs (reference value: 0.17 +/- 0.01 nmol). In kind it is functional.
A short description of data set [24]: Modulation of sphingomyelin pool in human L3.6p1 cells assessed as N22:0 level per mg protein at 500 nM after 48 hrs (reference value: 0.23 +/- 0.01 nmol). In kind it is functional.
Data set [25] can be described thus: Modulation of sphingomyelin pool in human L3.6p1 cells assessed as N23:2 level per mg protein at 500 nM after 48 hrs (reference value: 0.01 nmol). In kind it is functional.
The nature of data set [26]: Modulation of sphingomyelin pool in human L3.6p1 cells assessed as N23:1 level per mg protein at 500 nM after 48 hrs (reference value: 0.10 nmol). It is filed as functional.
Data set [27] in a line: Modulation of sphingomyelin pool in human L3.6p1 cells assessed as N23:0 level per mg protein at 500 nM after 48 hrs (reference value: 0.07 nmol). In kind it is functional.
The nature of data set [28]: Modulation of sphingomyelin pool in human L3.6p1 cells assessed as N24:2 level per mg protein at 500 nM after 48 hrs (reference value: 0.30 +/- 0.01 nmol). It is filed as functional.
A short description of data set [29]: Modulation of sphingomyelin pool in human L3.6p1 cells assessed as N24:1 level per mg protein at 500 nM after 48 hrs (reference value: 1.07 +/- 0.03 nmol). It is filed as functional.
The nature of data set [30]: Modulation of sphingomyelin pool in human L3.6p1 cells assessed as N24:0 level per mg protein at 500 nM after 48 hrs (reference value: 0.32 +/- 0.01 nmol). It is filed as functional.
The nature of data set [31]: Modulation of sphingomyelin pool in human L3.6p1 cells assessed as N25:1 level per mg protein at 500 nM after 48 hrs (reference value: 0.02 +/- 0.01 nmol). It is filed as functional.
Data set [32] can be described thus: Modulation of sphingomyelin pool in human L3.6p1 cells assessed as N25:0 level per mg protein at 500 nM after 48 hrs (reference value: 0.01 nmol). In kind it is functional.
Data set [33] is described as follows: Modulation of sphingomyelin pool in human L3.6p1 cells assessed as N26:1 level per mg protein at 500 nM after 48 hrs (reference value: 0.02 nmol). In kind it is functional.
The nature of data set [34]: Modulation of sphingomyelin pool in human L3.6p1 cells assessed as total sphingomyelin level per mg protein at 500 nM after 48 hrs (reference value: 5.91 +/- 0.11 nmol). It is filed as functional.
The species named for data set [35] is Mus musculus. The experiment in a line: Increase in SGMS activity in mouse PancO2 cell lysates assessed as induction of NBD-sphingomyelin production at 0.5 uM using C12-NBD-ceramide substrate after 72 hrs by TLC relative to control.
For data set [36], the species on record is Mus musculus. Briefly: Increase in SGMS activity in mouse PancO2 cell lysates assessed as induction of NBD-sphingomyelin production at 1 uM using C12-NBD-ceramide substrate after 72 hrs by TLC relative to control.

The term IC50 denotes the midpoint of a concentration-inhibition curve. A word on the inhibition: it is the relative decrease from the control value, in per cent. On to `OCC1CCCCCCCCCCCCCC1`, for which the half-inhibitory concentration (IC50) in data set [1] was > 100 µM; in the data set with CHO-MG, > 100 µM; in data set [2], 42 µM. In data set [2], the IC5 is 8.4 µM. In addition, the inhibition at 1 µM in [3] is -37.2%. In data set [4], the solubility result is on record as “Insoluble”.

Turning to `Cl.Cl.Cl.NCCCNCCCN1CCCCCCCCCCCCCC1`, the “Ratio IC50” value in data set [5] stood at 1. For the same molecule, in data set [2], the IC5 worked out at 0.6 µM. The half-maximal inhibitory concentration (IC50) in [2] is 0.99 µM. The inhibition at 0.5 µM in [6] was determined as 20.6%. Moreover, in [3], the inhibition at 1 µM is 39.8%. The Activity in [7] is 0.17 nmol; in data set [8], 0.51 nmol; in [9], 0.2 nmol; in data set [10] it was 0.89 nmol; in data set [11], 0.14 nmol; in data set [12], 0.14 nmol. The Activity in [13] stood at 0.33 nmol; in data set [14], 3.26 nmol; in data set [15], 0.06 nmol; in [16], 0.11 nmol; in data set [17], 0.32 nmol; in data set [18], 0.01 nmol. Also, the Activity in data set [19] was 0.03 nmol; in data set [20] it was 0.1 nmol; in data set [21] it was 0.05 nmol; in [22], 0.02 nmol; in data set [23] it was 0.27 nmol; in data set [24], 0.35 nmol. In addition, the Activity in [25] was determined as 0.01 nmol; in data set [26], 0.14 nmol; in data set [27], 0.1 nmol; in data set [28] it was 0.41 nmol; in data set [29], 1.49 nmol; in data set [30], 0.39 nmol. Besides, the Activity in data set [31] worked out at 0.03 nmol; in data set [32] it was 0.03 nmol; in data set [33] it was 0.04 nmol; in data set [34], 7.84 nmol; in the data set filed under Mus musculus [35] it was 89%; in the data set listed under Mus musculus [36], 75%.
